Laboratory results from article PMC12042115 (mLife, 2025).
Where two headings read alike, the source gives them in different places.

Test system: wild‐type BCG cells
Assay type: cell-based, M. bovis BCG
Settings: for Mean Ratio: GDI5755_2d vs DMSO_2d; for Mean Ratio / Mean Ratio (GDI5755_2d vs DMSO_2d): up-regulated; for Mean_Ratio (GDI5755_3d vs DMSO_3d): down-regulated, 3 d; for Mean Ratio (GDI5755_2d vs DMSO_2d): 2d

How did the “Mean Ratio” value (protein A1KKK9 Transcriptional regulator MraZ) turn out when `O=C(Oc1ccc(Cl)cc1)c1ccc(N2CCOCC2)c([N+](=O)[O-])c1` [GDI‐5755] was run?
Its value is 1.25.

What about the “Mean_Ratio (GDI5755_3d vs DMSO_3d)” value (protein A1KKR8, BCG_2242 (Rv2225), 3-methyl-2-oxobutanoate hydroxymethyltransferase) of the same molecule?
Its value is 0.748.

And the “Mean_Ratio (GDI5755_3d vs DMSO_3d)” value (protein A1KLF3, BCG_2477c (Rv2457c), ATP-dependent Clp protease ATP-binding subunit ClpX)?
The value was 0.743.

What about the “Mean_Ratio (GDI5755_3d vs DMSO_3d)” value (protein A1KLT2, BCG_2607c (Rv2584c), Adenine phosphoribosyltransferase) of the same molecule?
Its value is 0.7.

And the “Mean_Ratio (GDI5755_3d vs DMSO_3d)” value (protein A1KMA6, BCG_2781c (Rv2764c), Thymidylate synthase)?
Its value is 0.7.

What about the “Mean Ratio (GDI5755_2d vs DMSO_2d)” value (protein A1KNI8 UPF0182 protein BCG_3215c) of the same molecule?
Its value is 1.34.

And the “Mean Ratio” value (protein A1KNQ0 Adenosylhomocysteinase)?
Its value is 1.26.

And the “Mean_Ratio (GDI5755_3d vs DMSO_3d)” value (protein A1KQ47, BCG_3775c (Rv3715c), Recombination protein RecR)?
Its value is 0.7.

And the “Mean Ratio (GDI5755_2d vs DMSO_2d)” value (protein BCG_0095 A1KEN2 UPF0182 protein)?
The value was 1.41.

What about the “Mean Ratio (GDI5755_2d vs DMSO_2d)” value (protein BCG_0108c A0A0H3M9Q4 Probable oxidoreductase) of the same molecule?
The value was 1.77.

What about the “Mean Ratio (GDI5755_2d vs DMSO_2d)” value (protein BCG_0130 A0A0H3M0N8 Possible oxidoreductase) of the same molecule?
Its value is 1.72.

What about the “Mean Ratio (GDI5755_2d vs DMSO_2d)” value (protein BCG_0132 A0A0H3M2I5 Possible fatty-acid-CoA ligase fadD10) of the same molecule?
The value was 1.49.

And the “Mean Ratio (GDI5755_2d vs DMSO_2d)” value (protein BCG_0178 A0A0H3M7D0 DNA glycosylase)?
The value was 1.58.

And the “Mean Ratio (GDI5755_2d vs DMSO_2d)” value (protein BCG_0181 A1KEW5 Putative S-adenosyl-L-methionine-dependent methyltransferase)?
The value was 2.17.

What about the “Mean Ratio (GDI5755_2d vs DMSO_2d)” value (protein BCG_0182 A1KEW6 Putative S-adenosyl-L-methionine-dependent methyltransferase) of the same molecule?
Its value is 2.71.

What about the “Mean Ratio (GDI5755_2d vs DMSO_2d)” value (protein BCG_0228 A0A0H3MA02 Probable conserved integral membrane protein) of the same molecule?
The value was 1.46.

What about the “Mean Ratio (GDI5755_2d vs DMSO_2d)” value (protein BCG_0248 A1KF31 Phosphoenolpyruvate carboxykinase [GTP],pckG) of the same molecule?
The value was 1.87.

What about the “Mean Ratio (GDI5755_2d vs DMSO_2d)” value (protein BCG_0282c A0A0H3M7K8 Probable acyl-CoA dehydrogenase fadE5) of the same molecule?
Its value is 1.45.

And the “Mean Ratio (GDI5755_2d vs DMSO_2d)” value (protein BCG_0289c A0A0H3MA45 HSP20 family protein/ Heat stress induced ribosome-binding protein A,acr2)?
The value was 3.46.

What about the “Mean Ratio (GDI5755_2d vs DMSO_2d)” value (protein BCG_0353 A0A0H3M1Y1 Transmembrane protein) of the same molecule?
The value was 1.84.

What about the “Mean Ratio (GDI5755_2d vs DMSO_2d)” value (protein BCG_0380 A0A0H3MAC3 Isoniazid inductible gene protein iniB) of the same molecule?
The value was 1.73.

What about the “Mean Ratio (GDI5755_2d vs DMSO_2d)” value (protein BCG_0389 A1KFH2 Chaperone protein DnaK) of the same molecule?
Its value is 1.52.

What about the “Mean Ratio (GDI5755_2d vs DMSO_2d)” value (protein BCG_0390 A1KFH3 Protein GrpE) of the same molecule?
Its value is 1.53.

What about the “Mean Ratio (GDI5755_2d vs DMSO_2d)” value (protein BCG_0391 A0A0H3M380 Chaperone protein DnaJ) of the same molecule?
The value was 1.51.

What about the “Mean Ratio (GDI5755_2d vs DMSO_2d)” value (protein BCG_0422c A0A0H3M7W9 Chaperone protein ClpB) of the same molecule?
The value was 1.56.

And the “Mean Ratio (GDI5755_2d vs DMSO_2d)” value (protein BCG_0465c A0A0H3M812 Possible transmembrane protein)?
The value was 1.45.

And the “Mean Ratio (GDI5755_2d vs DMSO_2d)” value (protein BCG_0490c A0A0H3M1K6 Probable conserved membrane protein mmpS4)?
The value was 1.45.

What about the “Mean Ratio (GDI5755_2d vs DMSO_2d)” value (protein BCG_0494c A0A0H3M296 DUF5078 domain-containing protein) of the same molecule?
The value was 1.52.

What about the “Mean Ratio (GDI5755_2d vs DMSO_2d)” value (protein BCG_0507 A0A0H3M3L9 isocitrate lyase) of the same molecule?
The value was 1.56.

And the “Mean Ratio (GDI5755_2d vs DMSO_2d)” value (protein BCG_0517 A0A0H3M881 Possible conserved transmembrane protein)?
Its value is 1.43.

And the “Mean Ratio (GDI5755_2d vs DMSO_2d)” value (protein BCG_0565 A0A0H3M3T9 Probable gaba permease gabP (4-amino butyrate transport carrier))?
Its value is 1.46.

And the “Mean Ratio (GDI5755_2d vs DMSO_2d)” value (protein BCG_0578c A0A0H3M3U8 1,4-dihydroxy-2-naphthoate octaprenyltransferase)?
The value was 1.66.

What about the “Mean Ratio (GDI5755_2d vs DMSO_2d)” value (protein BCG_0605c A1KG37 2-heptyl-1-hydroxyquinolin-4(1H)-one methyltransferase) of the same molecule?
The value was 2.76.

What about the “Mean Ratio (GDI5755_2d vs DMSO_2d)” value (protein BCG_0614 A0A0H3M8E5 DUF1918 domain-containing protein) of the same molecule?
Its value is 1.43.

What about the “Mean Ratio (GDI5755_2d vs DMSO_2d)” value (protein BCG_0623c A0A0H3M1W6 PE-PGRS family protein) of the same molecule?
Its value is 1.87.

What about the “Mean Ratio (GDI5755_2d vs DMSO_2d)” value (protein BCG_0725c A0A0H3MAX0 Probable conserved transmembrane transport protein mmpL5) of the same molecule?
The value was 1.69.

What about the “Mean Ratio (GDI5755_2d vs DMSO_2d)” value (protein BCG_0727 A0A0H3M257 Transcriptional regulator) of the same molecule?
Its value is 1.43.

What about the “Mean Ratio (GDI5755_2d vs DMSO_2d)” value (protein BCG_0761 A0A0H3M268 Possible arylsulfatase atsA) of the same molecule?
The value was 1.61.

And the “Mean Ratio (GDI5755_2d vs DMSO_2d)” value (protein BCG_0776c A1KGK7 Putative S-adenosyl-L-methionine-dependent methyltransferase BCG_0776c)?
The value was 1.55.

What about the “Mean Ratio (GDI5755_2d vs DMSO_2d)” value (protein BCG_0835 A0A0H3M322 Deacetylase) of the same molecule?
The value was 1.55.

What about the “Mean Ratio (GDI5755_2d vs DMSO_2d)” value (protein BCG_0883 A1KGW3 Putative S-adenosyl-L-methionine-dependent methyltransferase BCG_0883) of the same molecule?
The value was 1.87.

And the “Mean Ratio (GDI5755_2d vs DMSO_2d)” value (protein BCG_0969 A0A0H3M4Q4 Possible glycine betaine transport integral membrane protein betP)?
The value was 1.64.

And the “Mean Ratio (GDI5755_2d vs DMSO_2d)” value (protein BCG_1053 A0A0H3M3P8 Uncharacterized protein)?
The value was 1.56.

What about the “Mean Ratio (GDI5755_2d vs DMSO_2d)” value (protein BCG_1115 A0A0H3M9F1 Uncharacterized protein) of the same molecule?
Its value is 1.90.

And the “Mean Ratio (GDI5755_2d vs DMSO_2d)” value (protein BCG_1130 A0A0H3M9G5 Probable conserved transmembrane protein)?
The value was 1.64.

And the “Mean Ratio (GDI5755_2d vs DMSO_2d)” value (protein BCG_1191 A0A0H3M5B0 2-methylcitrate dehydratase)?
Its value is 1.57.

And the “Mean Ratio (GDI5755_2d vs DMSO_2d)” value (protein BCG_1249 A0A0H3M3D0 L-glutamate gamma-semialdehyde dehydrogenase)?
The value was 1.49.

What about the “Mean Ratio (GDI5755_2d vs DMSO_2d)” value (protein BCG_1281 A0A0H3M3F3 Alternative RNA polymerase sigma factor sigE) of the same molecule?
The value was 1.41.

And the “Mean Ratio (GDI5755_2d vs DMSO_2d)” value (protein BCG_1309c A0A0H3M3H0 Possible membrane protein)?
Its value is 1.44.

What about the “Mean Ratio (GDI5755_2d vs DMSO_2d)” value (protein BCG_1334 A0A0H3M3I9 Lipoprotein lprC) of the same molecule?
The value was 1.55.

What about the “Mean Ratio (GDI5755_2d vs DMSO_2d)” value (protein BCG_1404c A0A0H3M3N1 Conserved membrane protein) of the same molecule?
Its value is 1.78.

And the “Mean Ratio (GDI5755_2d vs DMSO_2d)” value (protein BCG_1574c A0A0H3M689 Probable conserved transmembrane transport protein mmpL12)?
The value was 1.47.

What about the “Mean Ratio (GDI5755_2d vs DMSO_2d)” value (protein BCG_1609 A0A0H3M480 Probable conserved transmembrane transport protein mmpL6) of the same molecule?
Its value is 1.85.

And the “Mean Ratio (GDI5755_2d vs DMSO_2d)” value (protein BCG_1660c A0A0H3M5A2 Probable integral membrane cytochrome D ubiquinol oxidase (Subunit II) cydB)?
The value was 1.42.

And the “Mean Ratio (GDI5755_2d vs DMSO_2d)” value (protein BCG_1661c A0A0H3M4E4 Probable integral membrane cytochrome D ubiquinol oxidase (Subunit I) cydA)?
The value was 1.57.

What about the “Mean Ratio (GDI5755_2d vs DMSO_2d)” value (protein BCG_1890c A0A0H3MB87 Type II NADH dehydrogenase Ndh/Rv1854c) of the same molecule?
The value was 1.53.

And the “Mean Ratio (GDI5755_2d vs DMSO_2d)” value (protein BCG_2010c A0A0H3M561 DUF1490 family protein)?
Its value is 1.88.

What about the “Mean Ratio (GDI5755_2d vs DMSO_2d)” value (protein BCG_2056c A0A0H3MBM9 Possible conserved transmembrane protein) of the same molecule?
Its value is 1.52.

And the “Mean Ratio (GDI5755_2d vs DMSO_2d)” value (protein BCG_2072c A0A0H3M7M3 Probable transmembrane protein)?
Its value is 2.05.

And the “Mean Ratio (GDI5755_2d vs DMSO_2d)” value (protein BCG_2419c A0A0H3M8K8 Probable conserved lipoprotein lppR)?
Its value is 1.48.

What about the “Mean Ratio (GDI5755_2d vs DMSO_2d)” value (protein BCG_2583 A0A0H3M7F6 Probable proline and glycine rich transmembrane protein) of the same molecule?
The value was 1.73.

And the “Mean Ratio (GDI5755_2d vs DMSO_2d)” value (protein BCG_2657 A0A0H3M963 Archease domain-containing protein)?
Its value is 1.52.

And the “Mean Ratio (GDI5755_2d vs DMSO_2d)” value (protein BCG_2934c A0A0H3M896 Possible D-amino acid aminohydrolase)?
The value was 1.77.

And the “Mean Ratio (GDI5755_2d vs DMSO_2d)” value (protein BCG_2965 A0A0H3MDP7 Probable transposase for insertion sequence element IS1533)?
The value was 2.65.

What about the “Mean Ratio (GDI5755_2d vs DMSO_2d)” value (protein BCG_3007c A0A0H3M7X4 DNA-binding protein HupB) of the same molecule?
Its value is 1.45.

What about the “Mean Ratio (GDI5755_2d vs DMSO_2d)” value (protein BCG_3038 A0A0H3MA42 Probable lipoprotein lpqA) of the same molecule?
Its value is 1.97.
